According to patent publication US20110144159A1, “ETHER BENZYLIDENE PIPERIDINE ARYL CARBOXAMIDE COMPOUNDS USEFUL AS FAAH INHIBITORS” (Pfizer Inc, priority 2008, published 2011):

Molecular target: T1, Human FAAH (Homo sapiens, UniProt O00519)
T1 construct: made in house
T1 sequence (O00519 32-579 limits assumed): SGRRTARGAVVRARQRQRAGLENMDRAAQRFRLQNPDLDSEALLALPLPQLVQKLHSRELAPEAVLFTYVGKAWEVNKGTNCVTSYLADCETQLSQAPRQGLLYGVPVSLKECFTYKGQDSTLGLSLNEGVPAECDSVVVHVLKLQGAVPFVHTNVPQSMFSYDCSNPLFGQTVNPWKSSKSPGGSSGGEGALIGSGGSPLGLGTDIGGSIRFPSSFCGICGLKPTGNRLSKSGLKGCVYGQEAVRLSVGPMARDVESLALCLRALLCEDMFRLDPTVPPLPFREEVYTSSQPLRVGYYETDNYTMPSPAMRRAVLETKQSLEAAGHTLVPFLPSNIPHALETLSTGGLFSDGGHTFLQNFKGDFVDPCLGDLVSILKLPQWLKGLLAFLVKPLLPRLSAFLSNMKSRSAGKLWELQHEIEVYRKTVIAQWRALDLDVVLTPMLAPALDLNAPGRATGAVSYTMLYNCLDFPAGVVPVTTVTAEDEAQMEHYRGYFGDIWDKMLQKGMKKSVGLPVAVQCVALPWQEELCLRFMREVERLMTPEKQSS
Test: FAAH assay (glutamate dehydrogenase-coupled, oleamide substrate, absorbance at 340 nm)
Assay type: biochemical
Settings: irreversible inhibition potency
Description: A FAAH assay may be carried out in 384-well clear polystyrene plates in a total volume of 50 μl per well. All percents are by volume. To each well was placed the reaction mixture (40 μl) containing 1-4 nM FAAH, 50 mM NaPi, pH 7.4, 3 mM α-ketoglutarate, 0.15 mM NADH, 7.5 U/ml glutamate dehydrogenase, 2 mM ADP, 1 mM EDTA, and 0.1% Triton X-100 (The concentration shown for each component was the final concentration in the assay). To this mixture was added 5 μl of a compound of Examples 1 to 20 at various concentrations prepared in 50% DMSO (or 5 μl 50% DMSO for controls). This was immediately followed by the addition of 5 μl oleamide (500 μM) dissolved in 75% EtOH/25% DMSO and the reaction mixture was mixed for 1.5 min. The final concentrations of DMSO and EtOH in the assay are each 7.5%. The reactions was then incubated at 30° C. and the absorbance at 340 nm was collected over a period of 90 min with readings taken in 30-second intervals using SpectraMax Plus^384 Microplate Spectrophotometer (Molecular Devices, Sunnyvale, Calif.). Human FAAH used in the assay was prepared as described in the patent application WO 2006/067613. The purity of the enzyme used was greater than 98% based on an analysis by SDS-polyacrylamide gel electrophoresis followed by Coomassie Blue staining.
Initial velocity data (V) is obtained from the slopes of the initial progressive curves. They are plotted as a function of substrate concentration and fit to the Michaelis-Menten equation (1) using Prism (GraphPad Software, Inc., San Diego, Calif.) software to obtain Km and Vmax values.
To obtain potencies of irreversible inhibitors, progressive curves consistent with first order inhibition kinetics (two-step irreversible inhibition mechanism) are fit to equation (2) by nonlinear least squares regressions to determine kobs values at each inhibitor concentration, where [P]t is the absorbance at time t, V0 is a constant related to the steady state rate of the uninhibited reaction, and kobs is the first order rate constant for enzyme inactivation. The inhibitor dissociation constant (Ki) and the first order rate
constant of enzyme inactivation at infinite inhibitor concentration (kinact) are then obtained by fitting the kobs vs. [I] curves to equation (3).

Compound | hFAAH KInact/K [M⁻¹ s⁻¹]
CC(C)CCOc1cccc(C=C2CCN(C(=O)Nc3cccnn3)CC2)c1 [Example 62, 4-[3-(3-methylbutoxy)benzylidene]-N-pyridazin-3-ylpiperidine-1-carboxamide] | 15200
Cc1noc(C)c1COc1cccc(C=C2CCN(C(=O)Nc3cccnn3)CC2)c1 [Example 65, 4-{3-[(3,5-dimethylisoxazol-4-yl)methoxy]benzylidene}-N-pyridazin-3-ylpiperidine-1-carboxamide] | 130
COCCOc1cccc(C=C2CCN(C(=O)Nc3cccnn3)CC2)c1 [Example 66, 4-[3-(2-methoxyethoxy)benzylidene]-N-pyridazin-3-ylpiperidine-1-carboxamide] | 503
O=C(Nc1cccnn1)N1CCC(=Cc2cccc(OCc3nccs3)c2)CC1 [Example 68, N-pyridazin-3-yl-4-[3-(1,3-thiazol-2-ylmethoxy)benzylidene]piperidine-1-carboxamide] | 452
O=C(Nc1cccnn1)N1CCC(=Cc2cccc(OCc3cccc(C(F)(F)F)n3)c2)CC1 [Example 71, N-pyridazin-3-yl-4-(3-{[6-(trifluoromethyl)pyridin-2-yl]methoxy}benzylidene)piperidine-1-carboxamide] | 294
O=C(Nc1cccnn1)N1CCC(=Cc2cccc(OCCCC(F)(F)F)c2)CC1 [Example 72, N-pyridazin-3-yl-4-[3-(4,4,4-trifluorobutoxy)benzylidene]piperidine-1-carboxamide] | 16800
O=C(Nc1cccnn1)N1CCC(=Cc2cccc(OCc3ccc(C(F)(F)F)cn3)c2)CC1 [Example 73, N-pyridazin-3-yl-4-(3-{[5-(trifluoromethyl)pyridin-2-yl]methoxy}benzylidene)piperidine-1-carboxamide] | 1470
Cc1ccc(COc2cccc(C=C3CCN(C(=O)Nc4cccnn4)CC3)c2)cn1 [Example 74, 4-{3-[(6-methylpyridin-3-yl)methoxy]benzylidene}-N-pyridazin-3-ylpiperidine-1-carboxamide] | 188
O=C(Nc1cccnn1)N1CCC(=Cc2cccc(OCCc3ccccc3)c2)CC1 [Example 75, 4-[3-(2-phenylethoxy)benzylidene]-N-pyridazin-3-ylpiperidine-1-carboxamide] | 36139
O=C(Nc1cccnn1)N1CCC(=Cc2cccc(OCC3CCOCC3)c2)CC1 [Example 76, N-pyridazin-3-yl-4-[3-(tetrahydro-2H-pyran-4-ylmethoxy)benzylidene]piperidine-1-carboxamide] | 2548
O=C(Nc1cccnn1)N1CCC(=Cc2cccc(OCCc3ccsc3)c2)CC1 [Example 78, N-pyridazin-3-yl-4-{3-[2-(3-thienyl)ethoxy]benzylidene}piperidine-1-carboxamide] | 35803
O=C(Nc1cccnn1)N1CCC(=Cc2cccc(OCCN3CCCCCC3)c2)CC1 [Example 80, 4-[3-(2-azepan-1-ylethoxy)benzylidene]-N-pyridazin-3-ylpiperidine-1-carboxamide] | 325
O=C(Nc1cccnn1)N1CCC(=Cc2cccc(OCC3CCC(F)(F)CC3)c2)CC1 [Example 82, 4-{3-[(4,4-difluorocyclohexyl)methoxy]benzylidene}-N-pyridazin-3-ylpiperidine-1-carboxamide] | 6850
O=C(Nc1cccnn1)N1CCC(=Cc2cccc(OCCc3cccnc3)c2)CC1 [Example 84, N-pyridazin-3-yl-4-[3-(2-pyridin-3-ylethoxy)benzylidene]piperidine-1-carboxamide] | 10747
O=C(Nc1cccnn1)N1CCC(=Cc2cccc(OCC3CCCC3)c2)CC1 [Example 86, 4-[3-(cyclopentylmethoxy)benzylidene]-N-pyridazin-3-ylpiperidine-1-carboxamide] | 6267
O=C(Nc1cccnn1)N1CCC(=Cc2cccc(OCCc3ccccn3)c2)CC1 [Example 87, N-pyridazin-3-yl-4-[3-(2-pyridin-2-ylethoxy)benzylidene]piperidine-1-carboxamide] | 3485
O=C(Nc1cccnn1)N1CCC(=Cc2cccc(OCCc3cccc(F)c3)c2)CC1 [Example 89, 4-{3-[2-(3-fluorophenyl)ethoxy]benzylidene}-N-pyridazin-3-ylpiperidine-1-carboxamide] | 25980

Other lines, results leading:

hFAAH KInact/K [M⁻¹ s⁻¹] | Compound
1420 | CC(C)C(C)Oc1cccc(C=C2CCN(C(=O)Nc3cccnn3)CC2)c1 (stereo not drawn) [Example 61, 4-[3-(1,2-dimethylpropoxy)benzylidene]-N-pyridazin-3-ylpiperidine-1-carboxamide]
131 | Cc1cc(COc2cccc(C=C3CCN(C(=O)Nc4cccnn4)CC3)c2)c(C(F)(F)F)o1 [Example 63, 4-(3-{[5-methyl-2-(trifluoromethyl)-3-furyl]methoxy}benzylidene)-N-pyridazin-3-ylpiperidine-1-carboxamide]
379 | CCC(Oc1cccc(C=C2CCN(C(=O)Nc3cccnn3)CC2)c1)C(C)C (stereo not drawn) [Example 64, 4-[3-(1-ethyl-2-methylpropoxy)benzylidene]-N-pyridazin-3-ylpiperidine-1-carboxamide]
370 | Cc1cccc(COc2cccc(C=C3CCN(C(=O)Nc4cccnn4)CC3)c2)n1 [Example 67, 4-{3-[(6-methylpyridin-2-yl)methoxy]benzylidene}-N-pyridazin-3-ylpiperidine-1-carboxamide]
116 | Cc1cc(COc2cccc(C=C3CCN(C(=O)Nc4cccnn4)CC3)c2)nn1C [Example 70, 4-{3-[(1,5-dimethyl-1H-pyrazol-3-yl)methoxy]benzylidene}-N-pyridazin-3-ylpiperidine-1-carboxamide]
207 | COc1ccc(CCOc2cccc(C=C3CCN(C(=O)Nc4cccnn4)CC3)c2)cc1 [Example 77, 4-{3-[2-(4-methoxyphenyl)ethoxy]benzylidene}-N-pyridazin-3-ylpiperidine-1-carboxamide]
3744 | CC1(C)CCC(Oc2cccc(C=C3CCN(C(=O)Nc4cccnn4)CC3)c2)CC1 [Example 81, 4-{3-[(4,4-dimethylcyclohexyl)oxy]benzylidene}-N-pyridazin-3-ylpiperidine-1-carboxamide]
22138 | O=C(Nc1cccnn1)N1CCC(=Cc2cccc(OCCC3CC3)c2)CC1 [Example 83, 4-[3-(2-cyclopropylethoxy)benzylidene]-N-pyridazin-3-ylpiperidine-1-carboxamide]
629 | O=C(Nc1cccnn1)N1CCC(=Cc2cccc(OCc3cc4ccccc4o3)c2)CC1 [Example 88, 4-[3-(1-benzofuran-2-ylmethoxy)benzylidene]-N-pyridazin-3-ylpiperidine-1-carboxamide]
7398 | CC(Cc1ccccc1)Oc1cccc(C=C2CCN(C(=O)Nc3cccnn3)CC2)c1 (stereo not drawn) [Example 91, 4-[3-(1-methyl-2-phenylethoxy)benzylidene]-N-pyridazin-3-ylpiperidine-1-carboxamide]
5205 | O=C(Nc1cccnn1)N1CCC(=Cc2cccc(OCCc3ccc(F)cc3)c2)CC1 [Example 92, 4-{3-[2-(4-fluorophenyl)ethoxy]benzylidene}-N-pyridazin-3-ylpiperidine-1-carboxamide]
2090 | CC1(COc2cccc(C=C3CCN(C(=O)Nc4cccnn4)CC3)c2)CC1 [Example 93, 4-{3-[(1-methylcyclopropyl)methoxy]benzylidene}-N-pyridazin-3-ylpiperidine-1-carboxamide]
27713 | O=C(Nc1cccnn1)N1CCC(=Cc2cccc(OCCCc3cnoc3)c2)CC1 [Example 94, 4-[3-(3-isoxazol-4-ylpropoxy)benzylidene]-N-pyridazin-3-ylpiperidine-1-carboxamide]
